Source: patent publication US20190256509A1, “HISTONE DEMETHYLASE INHIBITORS” (CHRYSALIS, INC., priority 2016, published 2019)

molecular target: T1, KDM5B enzyme (Homo sapiens, UniProt Q9UGL1); test: KDM5B HTRF (TR-FRET) demethylase inhibition assay; format: biochemical; details: 1.2 nM KDM5B, 30 nM Biotin-H3K4Me3 1-21 substrate, 10 point dose-response
T1 construct: Reaction Biology Corp (named for the assay, not expressly for the enzyme)
Procedure: Ten point dose-response curves for the compounds of Examples 1-135 were determined using a homogeneous time resolved fluorescence (HTRF) assay (Reaction Biology Corp, Malvern, Pa.). This assay combines fluorescence resonance energy transfer (FRET) with time resolve (TR) measurements (TR-FRET). The KDM5B α-ketoglutarate-dependent demethylase activity is calculated by measuring demethylation of a biotin labeled histone tri-methylated H3K4 substrate using an europium-cryptate (Eu)-labeled antibody donor specific for dimethylated histone H3K4 and a Streptavidin-XL665 acceptor that binds to the biotin group of substrate, and detecting FRET by exciting the reaction mixture at 320 nm and reading dual emissions at 615 nm and 665 nm.
Briefly, compounds disclosed herein were solubilized in DMSO and a series of 10, three-fold serial dilutions were made for each compound in 100% DMSO. The initial starting concentration for the serial dilutions of each compound was 10 μM or 100 μM. Control samples lacking compound, KDM5B enzyme or various reaction components also were prepared and processed in parallel with compound test samples.
An aliquot of each serial dilution of test compound was added to a 384 well plate (Corning Cat #3572) containing 1.2 nM KDM5B enzyme suspended in 50 mM Hepes, pH7.5, 50 mM NaCl, 0.01% Tween 20, 0.1% BSA, and 1% DMSO (final concentrations) in a 10 microliter reaction volume using a LABCYTE ECHO liquid handler. The samples were mixed, subjected to centrifugation and the plate was pre-incubated at room temperature for 15 minutes (min), to which 30 nM Biotin-H3K4Me3 1-21 substrate (Anaspec, Freemont Calif., Cat #64192), 20 μM Fe(II) and 20 μM α-ketoglutarate co-factors, and 100 μM Ascorbate were added to initiate the enzymatic reaction. The reaction mixture was incubated at room temperature for 45 minutes. A 10 μl aliquot of a detection mixture of Eu-labeled anti-histone H3K4Me2 antibody (CisBIO, Bedford Mass., Cat #610AXLB) and Streptavidin-XL665 (CisBIO, Bedford Mass., Cat #610 SAXLB) in 200 mM potassium fluoride and 10 mM EDTA was added and kinetic measurements were read at 5 minute intervals for a period of 30 minutes using an Envision Multiplate Reader (PerkinElmer Model 2102; excitation at 320 nm and emission reads at 615 nm and 665 nm). The IC50 value for each compound was determined from the 665/615 ratio obtained for each 10 point dose-response curve using GraphPad Prism 4 software with a sigmodial dose response.

T1 sequence (Q9UGL1 whole entry): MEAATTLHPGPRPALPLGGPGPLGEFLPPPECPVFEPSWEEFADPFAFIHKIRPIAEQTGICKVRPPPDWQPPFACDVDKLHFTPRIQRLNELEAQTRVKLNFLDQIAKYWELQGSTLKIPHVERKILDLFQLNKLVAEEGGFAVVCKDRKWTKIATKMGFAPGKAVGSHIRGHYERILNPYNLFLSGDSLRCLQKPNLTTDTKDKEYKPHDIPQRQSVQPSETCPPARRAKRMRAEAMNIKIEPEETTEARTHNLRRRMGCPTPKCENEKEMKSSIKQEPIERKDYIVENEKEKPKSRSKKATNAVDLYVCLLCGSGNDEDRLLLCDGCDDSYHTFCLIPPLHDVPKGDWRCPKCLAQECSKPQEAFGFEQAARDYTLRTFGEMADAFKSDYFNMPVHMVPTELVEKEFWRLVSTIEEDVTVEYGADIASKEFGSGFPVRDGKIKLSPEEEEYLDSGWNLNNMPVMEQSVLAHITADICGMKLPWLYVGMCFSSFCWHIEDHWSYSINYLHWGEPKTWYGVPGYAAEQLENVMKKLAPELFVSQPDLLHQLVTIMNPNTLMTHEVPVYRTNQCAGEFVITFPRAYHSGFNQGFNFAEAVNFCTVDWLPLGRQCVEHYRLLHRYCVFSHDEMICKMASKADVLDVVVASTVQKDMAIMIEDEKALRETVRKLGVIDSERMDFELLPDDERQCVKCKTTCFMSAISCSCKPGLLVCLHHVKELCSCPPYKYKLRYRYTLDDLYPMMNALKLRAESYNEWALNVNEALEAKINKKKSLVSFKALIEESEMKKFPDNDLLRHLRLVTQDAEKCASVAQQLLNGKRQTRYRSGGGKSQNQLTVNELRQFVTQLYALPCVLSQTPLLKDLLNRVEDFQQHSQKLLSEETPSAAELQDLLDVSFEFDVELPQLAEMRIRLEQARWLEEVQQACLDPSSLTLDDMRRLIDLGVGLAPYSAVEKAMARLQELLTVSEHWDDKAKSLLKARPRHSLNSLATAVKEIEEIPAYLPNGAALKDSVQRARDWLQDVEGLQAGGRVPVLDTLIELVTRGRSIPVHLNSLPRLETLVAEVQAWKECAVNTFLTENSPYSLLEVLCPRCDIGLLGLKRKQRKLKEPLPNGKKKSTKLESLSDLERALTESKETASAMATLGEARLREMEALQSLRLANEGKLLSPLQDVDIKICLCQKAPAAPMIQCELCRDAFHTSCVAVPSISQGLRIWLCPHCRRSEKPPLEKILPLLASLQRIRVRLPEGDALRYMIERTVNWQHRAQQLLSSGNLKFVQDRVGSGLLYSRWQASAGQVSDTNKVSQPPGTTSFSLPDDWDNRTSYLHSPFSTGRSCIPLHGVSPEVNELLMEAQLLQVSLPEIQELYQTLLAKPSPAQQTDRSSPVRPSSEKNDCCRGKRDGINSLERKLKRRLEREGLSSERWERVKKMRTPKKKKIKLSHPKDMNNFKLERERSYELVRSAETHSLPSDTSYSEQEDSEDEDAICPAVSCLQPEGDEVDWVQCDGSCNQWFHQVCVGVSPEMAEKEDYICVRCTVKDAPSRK

| IC50 | SMILES |
| --- | --- |
| 500 to 1000 nM | O=C(O)c1c(NCc2ccccc2OC(F)(F)F)ccc2nccn12 [Example 37] |
| > 1000 nM | CCCCc1ccc(CNc2ccc3nccn3c2C(=O)O)cc1 [Example 65] |
| 500 to 1000 nM | O=C(O)c1c(NCc2ccc(F)cc2F)ccc2nccn12 [Example 81] |
| > 1000 nM | CC(O)c1ccn2c(C(=O)O)cnc2c1 (stereo not shown) [Example 103] |
| > 1000 nM | O=C(O)c1c(NCc2cc(F)c(F)c(F)c2)ccc2nccn12 [Example 87] |
| > 1000 nM | CC(C)Oc1ccc(CNc2ccc3nccn3c2C(=O)O)cc1 [Example 28] |
| > 1000 nM | O=C(O)c1c(NCc2c(Cl)cccc2Cl)ccc2nccn12 [Example 10] |
| 500 to 1000 nM | Cn1c(=O)n(C)c2cc(CNc3ccc4nccn4c3C(=O)O)ccc21 [Example 76] |
| ≤ 500 nM | O=C(O)c1c(NCc2ccc(F)cc2C(F)(F)F)ccc2nccn12 [Example 60] |
| > 1000 nM | Cc1cccc(Cl)c1CNc1ccc2nccn2c1C(=O)O [Example 14] |
| > 1000 nM | O=C(O)c1c(NCc2ccccc2N2CCOCC2)ccc2nccn12 [Example 86] |
| > 1000 nM | O=C(O)c1c(NCc2ccc(-c3ccccc3)cc2)ccc2nccn12 [Example 7] |
| > 1000 nM | N#Cc1cccc(CNc2ccc3nccn3c2C(=O)O)c1 [Example 128] |
| ≤ 500 nM | COc1ccc(CNc2ccc3nccn3c2C(=O)O)c(OC)c1 [Example 1] |
| ≤ 500 nM | O=C(O)c1c(NCc2ccccc2-n2cccn2)ccc2nccn12 [Example 83] |
| ≤ 500 nM | CN1CCN(c2ccccc2CNc2ccc3nccn3c2C(=O)O)CC1 [Example 32] |
| > 1000 nM | Cc1cc(CNc2ccc3nccn3c2C(=O)O)ccc1F [Example 63] |
| > 1000 nM | O=C(O)c1c(NCc2cccc(F)c2F)ccc2nccn12 [Example 79] |
| > 1000 nM | Cc1ccc(Cl)c(CNc2ccc3nccn3c2C(=O)O)c1F [Example 70] |
| 500 to 1000 nM | O=C(O)c1c(NCc2ccc(Cl)c(C(F)(F)F)c2)ccc2nccn12 [Example 3] |
| > 1000 nM | O=C(O)c1c(NCC2CCCc3cc(Oc4ccccc4)ccc32)ccc2nccn12 (stereo not shown) [Example 115] |

| IC50 | SMILES |
| --- | --- |
| > 1000 nM | O=C(O)c1cc(OCCN2CCC(c3cc(Cl)cc(Cl)c3)CC2)cc2nccn12 [Example 132] |
| 500 to 1000 nM | O=C(O)c1c(NCc2ccccc2-c2ccccc2)ccc2nccn12 [Example 44] |
| ≤ 500 nM | COc1cc(Cl)ccc1OCc1cc(C(=O)O)n2ccnc2c1 [Example 129] |
| 500 to 1000 nM | O=C(O)c1c(NCc2ccc(C(F)(F)F)cc2)ccc2nccn12 [Example 55] |
| ≤ 500 nM | CN1CCN(c2ccc(CNc3ccc4nccn4c3C(=O)O)cc2)CC1 [Example 21] |
| > 1000 nM | O=C(O)c1c(NCc2ccc(F)c(Br)c2)ccc2nccn12 [Example 90] |
| > 1000 nM | O=C(O)c1c(NCc2cccc(OC(F)F)c2)ccc2nccn12 [Example 19] |
| > 1000 nM | O=C(O)c1c(NCc2ccc(OC(F)(F)F)cc2)ccc2nccn12 [Example 95] |
| > 1000 nM | CN(Cc1ccc(F)cc1)Cc1ccc(Oc2cc(C(=O)O)n3ccnc3c2)cc1 [Example 134] |
| ≤ 500 nM | COc1cccc(CNc2ccc3nccn3c2C(=O)O)c1 [Example 94] |
| > 1000 nM | O=C(O)c1c(NCc2cccc(OC(F)(F)F)c2)ccc2nccn12 [Example 89] |
| ≤ 500 nM | CS(=O)(=O)c1cccc(CNc2ccc3nccn3c2C(=O)O)c1 [Example 88] |
| 500 to 1000 nM | COc1ccc(CNc2ccc3nccn3c2C(=O)O)cc1Cl [Example 47] |
| > 1000 nM | O=C(O)c1c(NCc2cccc(F)c2)ccc2nccn12 [Example 50] |
| 500 to 1000 nM | O=C(O)c1c(NCc2ccccc2Cl)ccc2nccn12 [Example 15] |
| > 1000 nM | COc1cc(CNc2ccc3nccn3c2C(=O)O)ccc1O [Example 75] |
| ≤ 500 nM | O=C(O)c1c(NCc2ccc(-n3ccnc3)cc2)ccc2nccn12 [Example 78] |
| > 1000 nM | CN(C)c1ccc(CNc2ccc3nccn3c2C(=O)O)cc1 [Example 96] |
| > 1000 nM | COc1cc(Cl)ccc1CNc1cc(C(=O)O)n2ccnc2c1 [Example 122] |
| > 1000 nM | Cc1ccc(F)cc1CNc1ccc2nccn2c1C(=O)O [Example 68] |
| > 1000 nM | CC(C)(C)c1ccc(CNc2ccc3nccn3c2C(=O)O)cc1 [Example 25] |

| IC50 | SMILES |
| --- | --- |
| > 1000 nM | COc1ccc(CNc2ccc3nccn3c2C(=O)O)cc1 [Example 24] |
| ≤ 500 nM | O=C(O)c1c(NCc2ccc(F)cc2Cl)ccc2nccn12 [Example 13] |
| > 1000 nM | COc1ccc(Cl)cc1CNc1ccc2ncc(C(=O)O)n2c1 [Example 112] |
| > 1000 nM | COc1cc(Cl)ccc1CNc1ccc2ncc(C(=O)O)n2c1 [Example 118] |
| 500 to 1000 nM | O=C(O)c1c(NCc2ccccc2OC(F)F)ccc2nccn12 [Example 12] |
| > 1000 nM | Cc1ccc(F)c(CNc2ccc3nccn3c2C(=O)O)c1F [Example 35] |
| > 1000 nM | O=C(O)c1c(NCc2cccc(-c3ccccc3)c2)ccc2nccn12 [Example 52] |
| > 1000 nM | COc1ccc(F)c(CNc2ccc3nccn3c2C(=O)O)c1F [Example 11] |
| ≤ 500 nM | O=C(O)c1c(NCc2cccc(Br)c2)ccc2nccn12 [Example 4] |
| ≤ 500 nM | O=C(O)c1c(NCc2ccc(F)cc2)ccc2nccn12 [Example 23] |
| > 1000 nM | O=C(O)c1cc(Oc2ccc3ccncc3c2)cc2nccn12 [Example 109] |
| > 1000 nM | O=C(O)c1c(NCc2c(F)cccc2F)ccc2nccn12 [Example 36] |
| > 1000 nM | CC(O)c1cc(C(=O)O)n2ccnc2c1 (stereo not shown) [Example 106] |
| > 1000 nM | COc1c(F)cc(CNc2ccc3nccn3c2C(=O)O)cc1F [Example 46] |
| 500 to 1000 nM | O=C(O)c1c(NCc2ccccc2C(F)(F)F)ccc2nccn12 [Example 2] |
| 500 to 1000 nM | O=C(O)c1c(NCc2ccc(F)c(C(F)(F)F)c2)ccc2nccn12 [Example 62] |
| > 1000 nM | O=C(O)c1c(NCc2cccc3c2CNCC3)ccc2nccn12 [Example 121] |
| ≤ 500 nM | O=C(O)c1c(NCc2ccc(F)c(F)c2)ccc2nccn12 [Example 45] |
| > 1000 nM | Cc1ccc(F)c(CNc2ccc3nccn3c2C(=O)O)c1Cl [Example 38] |
